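1) Cells in 96-well plates. 2) Compound, 48 h, 5 concentrations. 3) Linear interpolation between surrounding doses. 4) Unreached endpoint = highest concentration. GI50 marks 50% less growth. TGI is the concentration that stops growth completely.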
What was measured:
Test in all cases: growth of human tumour cells (NCI), 48 h
CCRF-CEM leukemia = tested on: CCRF-CEM leukemia
OVCAR-4 ovarian = tested on: OVCAR-4 ovarian
K-562 leukemia = tested on: K-562 leukemia
T-47D breast = tested on: T-47D breast
HCT-116 colon = tested on: HCT-116 colon
HS 578T breast = tested on: HS 578T breast
SK-MEL-5 melanoma = tested on: SK-MEL-5 melanoma
SF-539 CNS = tested on: SF-539 CNS
MCF7 breast = tested on: MCF7 breast
786-0 renal = tested on: 786-0 renal
SR leukemia = tested on: SR leukemia
EKVX NSCLC = tested on: EKVX NSCLC
UACC-62 melanoma = tested on: UACC-62 melanoma
HL-60(TB) leukemia = tested on: HL-60(TB) leukemia
SNB-19 CNS = tested on: SNB-19 CNS
OVCAR-8 ovarian = tested on: OVCAR-8 ovarian
TK-10 renal = tested on: TK-10 renal
MDA-MB-231 breast = tested on: MDA-MB-231 breast
HT29 colon = tested on: HT29 colon
SF-268 CNS = tested on: SF-268 CNS
MALME-3M melanoma = tested on: MALME-3M melanoma
UO-31 renal = tested on: UO-31 renal
MOLT-4 leukemia = tested on: MOLT-4 leukemia
PC-3 prostate = tested on: PC-3 prostate
SW-620 colon = tested on: SW-620 colon
SF-295 CNS = tested on: SF-295 CNS
U251 CNS = tested on: U251 CNS
NCI-H522 lung = tested on: NCI-H522 lung
HOP-62 NSCLC = tested on: HOP-62 NSCLC
A549 NSCLC = tested on: A549 NSCLC
SK-OV-3 ovarian = tested on: SK-OV-3 ovarian
OVCAR-3 ovarian = tested on: OVCAR-3 ovarian
RXF 393 renal = tested on: RXF 393 renal
KM12 colon = tested on: KM12 colon
SK-MEL-2 melanoma = tested on: SK-MEL-2 melanoma
SNB-75 CNS = tested on: SNB-75 CNS
M14 melanoma = tested on: M14 melanoma
NCI-H226 lung = tested on: NCI-H226 lung
NCI-H23 lung = tested on: NCI-H23 lung
NCI-H460 lung = tested on: NCI-H460 lung
IGROV1 ovarian = tested on: IGROV1 ovarian
HCT-15 colon = tested on: HCT-15 colon
OVCAR-5 ovarian = tested on: OVCAR-5 ovarian
MDA-MB-435 = tested on: MDA-MB-435
HCC-2998 colon = tested on: HCC-2998 colon
ACHN renal = tested on: ACHN renal
DU-145 prostate = tested on: DU-145 prostate
COLO 205 colon = tested on: COLO 205 colon
BT-549 breast = tested on: BT-549 breast
A498 renal = tested on: A498 renal
CAKI-1 renal = tested on: CAKI-1 renal
NCI/ADR-RES ovarian = tested on: NCI/ADR-RES ovarian
SK-MEL-28 melanoma = tested on: SK-MEL-28 melanoma
UACC-257 melanoma = tested on: UACC-257 melanoma
LOX IMVI melanoma = tested on: LOX IMVI melanoma
SN12C renal = tested on: SN12C renal

Which GI50 (CCRF-CEM leukemia) does the source give for `C(=N\Nc1nnn(Cc2ccccc2)n1)/c1ccccc1` here?
The GI50 was 1.71 µM.

What about the TGI (CCRF-CEM leukemia) of the same compound?
The TGI was > 47.5 µM.

And the GI50 (OVCAR-4 ovarian)?
Its GI50 is > 100 µM.

What about the TGI (OVCAR-4 ovarian) of the same compound?
Its TGI is > 100 µM.

And the GI50 (K-562 leukemia)?
The GI50 was 0.43 µM.

And the TGI (K-562 leukemia)?
Its TGI is > 100 µM.

And the GI50 (T-47D breast)?
Its GI50 is 4.04 µM.

What about the TGI (T-47D breast) of the same compound?
Its TGI is > 100 µM.

What about the GI50 (HCT-116 colon) of the same compound?
The GI50 was 3.82 µM.

And the TGI (HCT-116 colon)?
Its TGI is > 73.3 µM.

What about the GI50 (HS 578T breast) of the same compound?
Its GI50 is 13.7 µM.

And the TGI (HS 578T breast)?
Its TGI is > 89.6 µM.

And the GI50 (SK-MEL-5 melanoma)?
Its GI50 is 2.02 µM.

And the TGI (SK-MEL-5 melanoma)?
The TGI was > 40.7 µM.

And the GI50 (SF-539 CNS)?
Its GI50 is 3.29 µM.

What about the TGI (SF-539 CNS) of the same compound?
Its TGI is 32.5 µM.

What about the GI50 (MCF7 breast) of the same compound?
Its GI50 is 2.41 µM.

What about the TGI (MCF7 breast) of the same compound?
Its TGI is > 64.2 µM.

What about the GI50 (786-0 renal) of the same compound?
Its GI50 is 8.54 µM.

What about the TGI (786-0 renal) of the same compound?
Its TGI is > 100 µM.

And the GI50 (SR leukemia)?
The GI50 was 0.301 µM.

And the TGI (SR leukemia)?
Its TGI is 2.21 µM.

And the GI50 (EKVX NSCLC)?
The GI50 was 12.3 µM.

And the TGI (EKVX NSCLC)?
The TGI was > 100 µM.

What about the GI50 (UACC-62 melanoma) of the same compound?
The GI50 was 2.2 µM.

And the TGI (UACC-62 melanoma)?
Its TGI is > 100 µM.

What about the GI50 (HL-60(TB) leukemia) of the same compound?
The GI50 was 1.3 µM.

What about the TGI (HL-60(TB) leukemia) of the same compound?
The TGI was 11.7 µM.

What about the GI50 (SNB-19 CNS) of the same compound?
The GI50 was 9.95 µM.

What about the TGI (SNB-19 CNS) of the same compound?
The TGI was 64.8 µM.

And the GI50 (OVCAR-8 ovarian)?
The GI50 was 6.72 µM.

What about the TGI (OVCAR-8 ovarian) of the same compound?
Its TGI is > 100 µM.

What about the GI50 (TK-10 renal) of the same compound?
The GI50 was 20 µM.

What about the TGI (TK-10 renal) of the same compound?
Its TGI is > 100 µM.

And the GI50 (MDA-MB-231 breast)?
The GI50 was 7.54 µM.

And the TGI (MDA-MB-231 breast)?
The TGI was > 79.6 µM.

What about the GI50 (HT29 colon) of the same compound?
The GI50 was 1.26 µM.

And the TGI (HT29 colon)?
Its TGI is > 100 µM.

What about the GI50 (SF-268 CNS) of the same compound?
The GI50 was 8.28 µM.

What about the TGI (SF-268 CNS) of the same compound?
Its TGI is > 89.3 µM.

And the GI50 (MALME-3M melanoma)?
The GI50 was 4.64 µM.

What about the TGI (MALME-3M melanoma) of the same compound?
The TGI was > 82.7 µM.

And the GI50 (UO-31 renal)?
Its GI50 is 9.68 µM.

What about the TGI (UO-31 renal) of the same compound?
Its TGI is > 100 µM.

What about the GI50 (MOLT-4 leukemia) of the same compound?
Its GI50 is 3.82 µM.

What about the TGI (MOLT-4 leukemia) of the same compound?
The TGI was > 100 µM.

What about the GI50 (PC-3 prostate) of the same compound?
Its GI50 is 6.82 µM.

What about the TGI (PC-3 prostate) of the same compound?
The TGI was > 100 µM.

What about the GI50 (SW-620 colon) of the same compound?
The GI50 was 1.73 µM.

And the TGI (SW-620 colon)?
Its TGI is > 100 µM.

What about the GI50 (SF-295 CNS) of the same compound?
The GI50 was 3.44 µM.

And the TGI (SF-295 CNS)?
Its TGI is 56.3 µM.

What about the GI50 (U251 CNS) of the same compound?
Its GI50 is 3.47 µM.

And the TGI (U251 CNS)?
The TGI was 24.9 µM.

And the GI50 (NCI-H522 lung)?
The GI50 was 0.56 µM.

And the GI50 (HOP-62 NSCLC)?
The GI50 was 4.77 µM.

And the TGI (HOP-62 NSCLC)?
Its TGI is > 52.4 µM.

And the GI50 (A549 NSCLC)?
Its GI50 is 4.7 µM.

What about the TGI (A549 NSCLC) of the same compound?
Its TGI is > 100 µM.

And the GI50 (SK-OV-3 ovarian)?
The GI50 was 3.29 µM.

What about the TGI (SK-OV-3 ovarian) of the same compound?
The TGI was 34.7 µM.

What about the GI50 (OVCAR-3 ovarian) of the same compound?
The GI50 was 2.26 µM.

What about the TGI (OVCAR-3 ovarian) of the same compound?
The TGI was 7.95 µM.

And the GI50 (RXF 393 renal)?
The GI50 was 2.58 µM.

And the TGI (RXF 393 renal)?
Its TGI is 20.2 µM.

And the GI50 (KM12 colon)?
The GI50 was 0.905 µM.

And the TGI (KM12 colon)?
The TGI was > 100 µM.

What about the GI50 (SK-MEL-2 melanoma) of the same compound?
Its GI50 is 1.02 µM.

And the TGI (SK-MEL-2 melanoma)?
Its TGI is 6.28 µM.

And the GI50 (SNB-75 CNS)?
The GI50 was 3.67 µM.

What about the TGI (SNB-75 CNS) of the same compound?
The TGI was 36.8 µM.

What about the GI50 (M14 melanoma) of the same compound?
Its GI50 is 1.31 µM.

What about the TGI (M14 melanoma) of the same compound?
Its TGI is 26.5 µM.

What about the GI50 (NCI-H226 lung) of the same compound?
Its GI50 is 10.4 µM.

What about the TGI (NCI-H226 lung) of the same compound?
Its TGI is > 100 µM.

And the GI50 (NCI-H23 lung)?
Its GI50 is 6.97 µM.

And the TGI (NCI-H23 lung)?
The TGI was > 53.8 µM.

And the GI50 (NCI-H460 lung)?
The GI50 was 2.51 µM.

And the TGI (NCI-H460 lung)?
Its TGI is > 33.8 µM.

And the GI50 (IGROV1 ovarian)?
Its GI50 is 7.05 µM.

And the TGI (IGROV1 ovarian)?
Its TGI is > 100 µM.

And the GI50 (HCT-15 colon)?
Its GI50 is 1.42 µM.

And the TGI (HCT-15 colon)?
The TGI was > 100 µM.

And the GI50 (OVCAR-5 ovarian)?
Its GI50 is > 43.7 µM.

And the TGI (OVCAR-5 ovarian)?
The TGI was > 96.6 µM.

What about the GI50 (MDA-MB-435) of the same compound?
The GI50 was 0.367 µM.

What about the TGI (MDA-MB-435) of the same compound?
Its TGI is 2.76 µM.

And the GI50 (HCC-2998 colon)?
The GI50 was 5.07 µM.

What about the TGI (HCC-2998 colon) of the same compound?
The TGI was > 100 µM.

What about the GI50 (ACHN renal) of the same compound?
The GI50 was 16.1 µM.

And the TGI (ACHN renal)?
The TGI was > 100 µM.

And the GI50 (DU-145 prostate)?
The GI50 was 6.73 µM.

And the TGI (DU-145 prostate)?
The TGI was > 100 µM.

And the GI50 (COLO 205 colon)?
Its GI50 is 3.2 µM.

What about the TGI (COLO 205 colon) of the same compound?
The TGI was > 59.2 µM.

And the GI50 (BT-549 breast)?
Its GI50 is 11.5 µM.

And the TGI (BT-549 breast)?
Its TGI is > 100 µM.

What about the GI50 (A498 renal) of the same compound?
The GI50 was 5.76 µM.

What about the TGI (A498 renal) of the same compound?
Its TGI is 55.3 µM.

And the GI50 (CAKI-1 renal)?
Its GI50 is 2.57 µM.

What about the TGI (CAKI-1 renal) of the same compound?
Its TGI is > 100 µM.

And the GI50 (NCI/ADR-RES ovarian)?
The GI50 was 0.545 µM.

What about the TGI (NCI/ADR-RES ovarian) of the same compound?
Its TGI is 8.78 µM.

What about the GI50 (SK-MEL-28 melanoma) of the same compound?
Its GI50 is 8.47 µM.

What about the TGI (SK-MEL-28 melanoma) of the same compound?
The TGI was > 100 µM.

What about the TGI (UACC-257 melanoma) of the same compound?
Its TGI is > 100 µM.

What about the GI50 (LOX IMVI melanoma) of the same compound?
Its GI50 is 6 µM.

What about the TGI (LOX IMVI melanoma) of the same compound?
The TGI was > 100 µM.

What about the GI50 (SN12C renal) of the same compound?
The GI50 was 9.46 µM.

And the TGI (SN12C renal)?
Its TGI is > 100 µM.

— PubChem BioAssay (NCI)
